These results are taken from patent US20260001876A1, “Compounds and Their Use as PDE4 Activators” (Mironid Limited, priority 2022, published 2026).

Test [1] concerns m-IMCD3 cells expressing PDE4 long forms. Description: cAMP levels in assay media of PGE2-stimulated m-IMCD3 3D cell culture. The class given is cell-based. The settings on record: Mus musculus, mIMCD3, compared to 100% for (DMSO + PGE2), read-out: cAMP level (% of PGE2-stimulated); for activity at 3 µM: 3 μM test compound. Here is the method:
HEK 293 and MDCK cells (Public Health England, Cell Culture Collections) were maintained in Dulbecco's Modified Eagle's Medium (DMEM) supplemented with 10% (v/v) fetal bovine serum (FBS) (Seralab), 2 mM L-glutamine and 100 U/mL penicillin streptomycin cocktail (ThermoFisher); termed complete media. Clonal HEK 293 cell lines were maintained in complete media supplemented with 0.6 mg/ml G418 (Enzo Life Sciences). Mouse inner medullary collecting duct (m-IMCD3) cells [American Type Culture Collection (ATCC)] were maintained in media consisting of DMEM/Hams F-12 50/50 Mix (DMEM F12; Corning) supplemented with penicillin streptomycin cocktail (100 U/mL) and FBS (10% v/v) (DMEM F12-10% FBS).
Experiment 2: Reduction of CAMP Levels in m-IMCD3 Cell Culture Treated with PDE4 Long Form Activators
Activation of intracellular PDE4 long forms leads to a reduction of both intracellular CAMP and externalised cAMP (Omar et al., PNAS 116:13320-13329, 2019). This reduction may be measured in the cell culture media supernatant of 3D cystic cell cultures, such as in the m-IMCD3 cell cyst suppression assay described in Experiment 3.
Following the completion of the m-IMCD3 cell cyst suppression assay (Experiment 3), the CAMP levels in the assay media from individual or pooled assay wells was measured using a CAMP ELISA kit (Enzo Life Sciences) or a LANCE Ultra CAMP kit (PerkinElmer) according to the manufacturer's instructions.
Treatment with PDE4 long form activators reduced CAMP levels in PGE2-stimulated m-IMCD3 cell culture.
Background: cAMP levels reflect the balance of adenylyl cyclase and phosphodiesterase activity.

Another test relates to m-IMCD3 cells. Put plainly: Inhibition of PGE2-stimulated in vitro cyst formation in m-IMCD3 cells (3D culture). The settings on record: Mus musculus, mIMCD3, 144 h, mean cyst area, 100% for (DMSO + PGE2) and 0% for DMSO control, 6 days of culture; for activity at 10 µM: read-out: % Cyst area* after incubation with 10 μM test compound; for activity at 3 µM: read-out: % Cyst area* after incubation with 3 μM test compound. The class given is cell-based. Put shortly:
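m-IMCD3 cells in a 3D collagen I/Matrigel matrix at 37 °C, 5% CO2 were dosed 18–24 h after plating with compound (0.1% DMSO) plus 100 nM PGE2, in quadruplicate, replenished after 2–3 days. On day 6, z-stack imaging measured mean cyst area, normalised to DMSO+PGE2 (100%) and DMSO alone (0%).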

As to `O=C(CC1CCC(F)(F)CC1)N1CCc2nc(N3CCNCC3)ccc2C1` [Example 111, 2-(4,4-difluorocyclohexyl)-1-(2-(piperazin-1-yl)-7,8-dihydro-1,6-naphthyridin-6(5H)-yl)ethan-1-one], the activity at 10 µM in test [1] (10 μM test compound) was 38%; in the test on m-IMCD3 cells, -3%.
Take `O=C(CC1CCCC1)N1CCc2nc(N3CCN4CCC[C@@H]4C3)ccc2C1` [Example 112, (R)-2-cyclopentyl-1-(2-(hexahydropyrrolo[1,2-a]pyrazin-2 (1H)-yl)-7,8-dihydro-1,6-naphthyridin-6(5H)-yl)ethan-1-one]: in test [1], the activity at 3 µM is 54%. Further, the activity at 10 µM in the test on m-IMCD3 cells was -6%.
The matching figures for `O=C(CC1CCCC1)N1CCc2nc(N3CCN4CCC[C@H]4C3)ccc2C1` [Example 113, (S)-2-cyclopentyl-1-(2-(hexahydropyrrolo[1,2-a]pyrazin-2 (1H)-yl)-7,8-dihydro-1,6-naphthyridin-6(5H)-yl)ethan-1-one]: 63% and -4%.
The matching figures for `O=C(CC1CCCC1)N1CCc2nc(C3CCNCC3)ccc2C1` [Example 114, 2-cyclopentyl-1-(2-(piperidin-4-yl)-7,8-dihydro-1,6-naphthyridin-6(5H)-yl)ethan-1-one]: 47% and -2%.
For the compound `O=C(CC1CCCC1)N1CCc2nc(C3CCN(CCO)CC3)ccc2C1` [Example 115, 2-cyclopentyl-1-(2-(1-(2-hydroxyethyl)piperidin-4-yl)-7,8-dihydro-1,6-naphthyridin-6(5H)-yl)ethan-1-one], in test [1], the activity at 3 µM was 32%. In the test with m-IMCD3 cells, the activity at 10 µM was -3%.
For the compound `COc1ccccc1C(=O)N1CCc2nc(N3C4CCC3CNC4)ccc2C1` [Example 121, (2-(3,8-diazabicyclo[3.2.1]octan-8-yl)-7,8-dihydro-1,6-naphthyridin-6(5H)-yl)(2-methoxyphenyl)methanone], the activity at 3 µM worked out at 44% in test [1] and 8% with m-IMCD3 cells.
The matching figures for `Cc1ccccc1C(=O)N1CCc2nc(N3C4CCC3CNC4)ccc2C1` [Example 122, (2-(3,8-diazabicyclo[3.2.1]octan-8-yl)-7,8-dihydro-1,6-naphthyridin-6(5H)-yl)(o-tolyl)methanone]: 66% and -1%.
Take `CC1(CC(=O)N2Cc3ccc(N4C5CCC4CNC5)nc3C2)CCCC1` [Example 129, 1-(2-(3,8-diazabicyclo[3.2.1]octan-8-yl)-5,7-dihydro-6H-pyrrolo[3,4-b]pyridin-6-yl)-2-(1-methylcyclopentyl)ethan-1-one]: the activity at 3 µM in test [1] amounted to 44%. The activity at 10 µM in the test on m-IMCD3 cells was 2%.
As for `O=C(Cc1ccccc1)N1CCc2nc(N3CCNCC3)ncc2C1` [Example 134, 2-phenyl-1-(2-(piperazin-1-yl)-7,8-dihydropyrido[4,3-d]pyrimidin-6(5H)-yl)ethan-1-one], the activity at 3 µM in test [1] came to 55%; in the test with m-IMCD3 cells, 7%.
The matching figures for `N#Cc1ccc(CC(=O)N2CCc3nc(N4C5CCC4CNC5)ncc3C2)cc1` [Example 136, 4-(2-(2-(3,8-diazabicyclo[3.2.1]octan-8-yl)-7,8-dihydropyrido[4,3-d]pyrimidin-6(5H)-yl)-2-oxoethyl)benzonitrile]: 38% and 1%.
The matching figures for `O=C(c1ccc(F)cc1)N1CCc2nc(N3CCNCC3)ncc2C1` [Example 147, (4-fluorophenyl)(2-(piperazin-1-yl)-7,8-dihydropyrido[4,3-d]pyrimidin-6(5H)-yl)methanone]: 40% and 4%.
The matching figures for `CCN1CCN(c2ccc3c(n2)CCN(C(=O)CC(C)(C)C)C3)CC1` [Example 150, 1-(2-(4-ethylpiperazin-1-yl)-7,8-dihydro-1,6-naphthyridin-6(5H)-yl)-3,3-dimethylbutan-1-one]: 49% and -1%.
Regarding `O=C(CC1CCCC1)N1CCc2nc(N3C4CCCC3CNC4)ccc2C1` [Example 151, 1-(2-(3,9-diazabicyclo[3.3.1]nonan-9-yl)-7,8-dihydro-1,6-naphthyridin-6(5H)-yl)-2-cyclopentylethan-1-one], the activity at 3 µM in test [1] is 51%; with m-IMCD3 cells, -8%.
The matching figures for `O=C(CC1CCCC1)N1CCc2nc(N3CC4CCCC(C3)N4)ccc2C1` [Example 152, 1-(2-(3,9-diazabicyclo[3.3.1]nonan-3-yl)-7,8-dihydro-1,6-naphthyridin-6(5H)-yl)-2-cyclopentylethan-1-one]: 41% and -6%.
The matching figures for `O=C(CC1CCCC1)N1CCc2nc(N3C[C@H]4C[C@@H]3CN4)ccc2C1` [Example 156, 1-(2-((1R,4R)-2,5-diazabicyclo[2.2.1]heptan-2-yl)-7,8-dihydro-1,6-naphthyridin-6(5H)-yl)-2-cyclopentylethan-1-one]: 49% and 4%.
Take `O=S(=O)(Cc1ccc(F)cc1)N1CCc2nc(N3C4CCC3CNC4)ccc2C1` [Example 158, 2-(3,8-diazabicyclo[3.2.1]octan-8-yl)-6-((4-fluorobenzyl)sulfonyl)-5,6,7,8-tetrahydro-1,6-naphthyridine]: the activity at 3 µM in test [1] was 46%; in the test on m-IMCD3 cells it was 5%.
The matching figures for `O=S(=O)(Cc1ccc(F)cc1)N1CCc2nc(N3CCNCC3)ccc2C1` [Example 160, 6-((4-fluorobenzyl)sulfonyl)-2-(piperazin-1-yl)-5,6,7,8-tetrahydro-1,6-naphthyridine]: 35% and -4%.
The matching figures for `O=S(=O)(Cc1ccccc1)N1CCc2nc(N3C4CCC3CNC4)ccc2C1` [Example 162, 6-(benzylsulfonyl)-2-(3,8-diazabicyclo[3.2.1]octan-8-yl)-5,6,7,8-tetrahydro-1,6-naphthyridine]: 38% and -3%.
The matching figures for `CCN1CC2CCC(C1)N2c1ccc2c(n1)CCN(S(=O)(=O)Cc1ccccc1)C2` [Example 163, 6-(benzylsulfonyl)-2-(3-ethyl-3,8-diazabicyclo[3.2.1]octan-8-yl)-5,6,7,8-tetrahydro-1,6-naphthyridine]: 39% and -1%.
Regarding `O=C(N[C@H]1CCOc2ccccc21)N1CCc2nc(N3C4CCC3CNC4)ccc2C1` [Example 166, 2-(3,8-diazabicyclo[3.2.1]octan-8-yl)-N—((S)-chroman-4-yl)-7,8-dihydro-1,6-naphthyridine-6(5H)-carboxamide], the activity at 3 µM in test [1] was found to be 35%; in the test on m-IMCD3 cells, 3%.
